# System: yeast genes (expressed mRNA)
# Assay: DNA chip measurement of expressed mRNA of yeast genes after culture with a toxic chemical substance
# Format: cell-based, Saccharomyces cerevisiae S288C
# Protocol: Yeast (Saccharomyces cerevisiae S288C (a SUC2mal mel gap2 CUP1)) were cultured at 25° C. on YPD medium (yeast extract 1%, polypeptone 2%, glucose 2%). One of toxic chemical substances was added to the cell at logarithmic growth phase, and the cell was further cultured for two hours. Cell was cultured without any chemical substance in the same condition, and was used as a control. Concentrations of the chemical substances were defined to inhibit the growth of the yeast but not lead to death.
# After the completion of cultivation, the culture was centrifuged to collect the cells. To the cells, sodium acetate buffer (50 mM sodium acetate, 10 mM EDTA, 1% SDS) was added, and the mixture was shaken at 65° C. for five minutes, followed by returning to room temperature, and obtaining the supernatant, which procedure was repeated two times. To the supernatant, ½ amount of a solution of phenol/chloroform (1:1) was added, and the mixture was centrifuged to give a supernatant, an equal amount of chloroform was added, and the mixture was centrifuged to give a supernatant. To the supernatant, an equal amount of isopropanol containing 0.3 M sodium acetate was added, and the mixture was allowed to stand at room temperature for 30 minutes, after which the mixture was centrifuged to give sediment of the whole RNAs. Seventy % ethanol was added to the sediment, and the mixture was again centrifuged to give sediment, which was then dried and dissolved in water. mRNA was isolated from the whole RNAs as followings. In view of the fact that a poly A chain is attached to the 3′ terminus of mRNA, a polynucleotide having a poly T structure which was immobilized on the surface of latex beads was used to trap the mRNA, and then the mRNA was washed and eluted with spine column (Oligotex-dT30<Super>mRNA Purification Kit, Takara). Reverse transcription of the mRNA was conducted with a reverse transcriptase (Super Script II Reverse Transcriptase; catalogue No. 18064-014, GibcoBRL) using fluorescence-labeled nucleotides to give cDNAs that were introduced with Cy3-dUTP or Cy5-dUTP during the reverse transcription.
# The labeled cDNAs were dissolved in TE buffer (10 mM Tris-HCl/1 mM EDTA, pH 8.0), and the solution was dropped on the DNA chip containing the whole genes of yeast (DNA Chip Research Inc. Japan) so that the cDNAs were hybridized on the DNA chip at 65° C. for over 12 hours. The fluoresces intensity of the DNA chip was read with a scanner, and the ratio relative to the fluorescence intensity resulting from the absence of chemical substance was estimated as the following, which is shown in Tables 1 to 9.
# In the Tables, “Intensity” indicated in the rightmost column is a value of the level of expressed mRNA of each gene in control cells as divided by the average level of the expressions of the whole genes. A gene of which mRNA level is lower in control, and is higher in cases of addition of chemical substance, is especially useful in the detection of toxic substances.
# Here, when a ratio of an amount of mRNA expressed in the presence of the chemical substance to an amount of mRNA expressed in the absence of the chemical substance is two or more, then it is considered significant.
smiles,measurement,setting,value
"CN(C)C(=S)SSC(=S)N(C)C [(10), Tetramethylthiuram disulfide]",The level of expressed mRNA in the presence of chemical substance/The level of expressed mRNA in the absence of chemical substance,"yeast gene YAL053W, cultured two hours with substance",0.9
same,The level of expressed mRNA in the presence of chemical substance/The level of expressed mRNA in the absence of chemical substance,"yeast gene YAR028W, cultured two hours with substance",0.9
same,The level of expressed mRNA in the presence of chemical substance/The level of expressed mRNA in the absence of chemical substance,yeast gene YBL043W,14.7
same,The level of expressed mRNA in the presence of chemical substance/The level of expressed mRNA in the absence of chemical substance,"yeast gene YBL048W, cultured two hours with substance",4.4
same,The level of expressed mRNA in the presence of chemical substance/The level of expressed mRNA in the absence of chemical substance,yeast gene YBL078C,15.2
same,The level of expressed mRNA in the presence of chemical substance/The level of expressed mRNA in the absence of chemical substance,"yeast gene YBL107C, cultured two hours with substance",3.1
same,The level of expressed mRNA in the presence of chemical substance/The level of expressed mRNA in the absence of chemical substance,yeast gene YBR008C (detoxification protein gene),21.1
same,The level of expressed mRNA in the presence of chemical substance/The level of expressed mRNA in the absence of chemical substance,yeast gene YBR008C (transport facilitation protein gene),21.1
same,The level of expressed mRNA in the presence of chemical substance/The level of expressed mRNA in the absence of chemical substance,yeast gene YBR046C,6.2
same,The level of expressed mRNA in the presence of chemical substance/The level of expressed mRNA in the absence of chemical substance,yeast gene YBR072W (stress protein genes),43.4
same,The level of expressed mRNA in the presence of chemical substance/The level of expressed mRNA in the absence of chemical substance,"yeast gene YBR099C, cultured two hours with substance",12.9
same,The level of expressed mRNA in the presence of chemical substance/The level of expressed mRNA in the absence of chemical substance,yeast gene YCL027W,16.3
same,The level of expressed mRNA in the presence of chemical substance/The level of expressed mRNA in the absence of chemical substance,yeast gene YCL069W (detoxification protein gene),6.9
same,The level of expressed mRNA in the presence of chemical substance/The level of expressed mRNA in the absence of chemical substance,yeast gene YCL069W (transport facilitation protein gene),6.9
same,The level of expressed mRNA in the presence of chemical substance/The level of expressed mRNA in the absence of chemical substance,"yeast gene YCR102C, cultured two hours with substance",61.5
same,The level of expressed mRNA in the presence of chemical substance/The level of expressed mRNA in the absence of chemical substance,"yeast gene YDL021W, cultured for two hours with substance",7.4
same,The level of expressed mRNA in the presence of chemical substance/The level of expressed mRNA in the absence of chemical substance,"yeast gene YDL059C, DNA repair protein genes, cultured two hours with substance",7.8
same,The level of expressed mRNA in the presence of chemical substance/The level of expressed mRNA in the absence of chemical substance,"yeast gene YDL072C, cultured two hours with substance",1.5
same,The level of expressed mRNA in the presence of chemical substance/The level of expressed mRNA in the absence of chemical substance,"yeast gene YDL204W, cultured two hours with substance",2.0
same,The level of expressed mRNA in the presence of chemical substance/The level of expressed mRNA in the absence of chemical substance,"yeast gene YDL218W, cultured two hours with substance",12.6
same,The level of expressed mRNA in the presence of chemical substance/The level of expressed mRNA in the absence of chemical substance,"yeast gene YDL222C, cultured two hours with substance",1.0
same,The level of expressed mRNA in the presence of chemical substance/The level of expressed mRNA in the absence of chemical substance,yeast gene YDL243C,29.6
same,The level of expressed mRNA in the presence of chemical substance/The level of expressed mRNA in the absence of chemical substance,"yeast gene YDL243C, cultured for two hours with substance",29.6
same,The level of expressed mRNA in the presence of chemical substance/The level of expressed mRNA in the absence of chemical substance,"yeast gene YDR031W, cultured two hours with substance",2.7
same,The level of expressed mRNA in the presence of chemical substance/The level of expressed mRNA in the absence of chemical substance,"yeast gene YDR056C, cultured two hours with substance",2.3
same,The level of expressed mRNA in the presence of chemical substance/The level of expressed mRNA in the absence of chemical substance,yeast gene YDR069C,4.5
same,The level of expressed mRNA in the presence of chemical substance/The level of expressed mRNA in the absence of chemical substance,"yeast gene YDR210W, cultured two hours with substance",1.0
same,The level of expressed mRNA in the presence of chemical substance/The level of expressed mRNA in the absence of chemical substance,yeast gene YDR258C (stress protein genes),13.3
same,The level of expressed mRNA in the presence of chemical substance/The level of expressed mRNA in the absence of chemical substance,"yeast gene YDR258C, mitochondria-located protein gene",13.3
same,The level of expressed mRNA in the presence of chemical substance/The level of expressed mRNA in the absence of chemical substance,"yeast gene YDR330W, cultured two hours with substance",2.6
same,The level of expressed mRNA in the presence of chemical substance/The level of expressed mRNA in the absence of chemical substance,yeast gene YDR353W,5.1
same,The level of expressed mRNA in the presence of chemical substance/The level of expressed mRNA in the absence of chemical substance,"yeast gene YDR391C, cultured two hours with substance",2.7
same,The level of expressed mRNA in the presence of chemical substance/The level of expressed mRNA in the absence of chemical substance,"yeast gene YDR411C, cultured two hours with substance",1.0
same,The level of expressed mRNA in the presence of chemical substance/The level of expressed mRNA in the absence of chemical substance,"yeast gene YDR486C, cultured two hours with substance",5.8
same,The level of expressed mRNA in the presence of chemical substance/The level of expressed mRNA in the absence of chemical substance,"yeast gene YDR511W, cultured two hours with substance",2.2
same,The level of expressed mRNA in the presence of chemical substance/The level of expressed mRNA in the absence of chemical substance,"yeast gene YDR533C, cultured two hours with substance",12.7
same,The level of expressed mRNA in the presence of chemical substance/The level of expressed mRNA in the absence of chemical substance,"yeast gene YDR545W, cultured two hours with substance",0.7
same,The level of expressed mRNA in the presence of chemical substance/The level of expressed mRNA in the absence of chemical substance,"yeast gene YEL001C, cultured two hours with substance",1.2
same,The level of expressed mRNA in the presence of chemical substance/The level of expressed mRNA in the absence of chemical substance,"yeast gene YER004W, cultured two hours with substance",2.9
same,The level of expressed mRNA in the presence of chemical substance/The level of expressed mRNA in the absence of chemical substance,"yeast gene YER035W, cultured two hours with substance",1.4
same,The level of expressed mRNA in the presence of chemical substance/The level of expressed mRNA in the absence of chemical substance,"yeast gene YER038C, cultured two hours with substance",2.5
same,The level of expressed mRNA in the presence of chemical substance/The level of expressed mRNA in the absence of chemical substance,yeast gene YER069W,10.4
same,The level of expressed mRNA in the presence of chemical substance/The level of expressed mRNA in the absence of chemical substance,"yeast gene YER069W, mitochondria-located protein gene",10.4
same,The level of expressed mRNA in the presence of chemical substance/The level of expressed mRNA in the absence of chemical substance,"yeast gene YER079W, cultured two hours with substance",3.4
same,The level of expressed mRNA in the presence of chemical substance/The level of expressed mRNA in the absence of chemical substance,"yeast gene YER106W, cultured two hours with substance",1.8
same,The level of expressed mRNA in the presence of chemical substance/The level of expressed mRNA in the absence of chemical substance,"yeast gene YER158C, cultured two hours with substance",1.6
same,The level of expressed mRNA in the presence of chemical substance/The level of expressed mRNA in the absence of chemical substance,"yeast gene YER163C, cultured two hours with substance",3.4
same,The level of expressed mRNA in the presence of chemical substance/The level of expressed mRNA in the absence of chemical substance,"yeast gene YER175C, cultured two hours with substance",11.5
same,The level of expressed mRNA in the presence of chemical substance/The level of expressed mRNA in the absence of chemical substance,"yeast gene YFL006W, cultured two hours with substance",1.7

# Source: patent US20100041089A1, “IMPROVED METHOD FOR DETECTING CHEMICAL […]” (priority 2006, published 2010)
